Test results reported in patent publication US20210379021A1 (Race Oncology Ltd., priority 2018, published 2021).
Where a name gives a salt, the structure may show the parent alone. Read-outs that look alike come from different tables or passages of the source.

Tests used:
[1] = tested on: calf thymus DNA; conditions: in vitro; cited from earlier work
[2] = cited from earlier work
[3] = Filtration of 40 mg/mL stock mixture, content by HPLC; format: physicochemical; conditions: 5-μm, 1.2-μm and 0.2-μm filters
Procedure: Finished vials are sealed under nitrogen and partial vacuum for storage. Storage of the vials is typically at 18° C. to 25° C.

[4] = cited from earlier work; remark: listed apart in the source
[5] = tested on: Human Platelets; conditions: cited from earlier work
[6] = in vivo; cited from earlier work
[7] = cited from earlier work; remark: listed apart in the source
[8] = in vivo; cited from earlier work; remark: listed apart in the source
[9] = tested on: tumor cells; conditions: cited from earlier work
[10] = tested on: DNA; conditions: hypoxic conditions; cited from earlier work
[11] = Assay of reconstituted bisantrene dihydrochloride diluted in i.v. bag, with or without 0.2-μm filter, glass vs plastic sample vials; format: physicochemical
[12] = high doses; cited from earlier work
[13] = tested on: hepatic microsomal enzymes; conditions: in vitro; specific metabolites not identified; cited from earlier work
[14] = tested on: L-1210 leukemia cells; conditions: cited from earlier work
[15] = tested on: P-388 leukemia and B-16 melanoma; conditions: mouse, in vivo; cited from earlier work
[16] = in vivo; cited from earlier work; remark: listed apart in the source
[17] = tested on: Human tumor cells; conditions: cited from earlier work
[18] = tested on: colon 26, Lewis lung, Ridgway osteosarcoma, B16, Lieberman plasma cell, P388 or L1210 cancer cells; conditions: cited from earlier work
[19] = tested on: plasma proteins; conditions: cited from earlier work
[20] = cited from earlier work; remark: listed apart in the source
[21] = cited from earlier work; remark: listed apart in the source

C(=N\NC1=NCCN1)/c1c2ccccc2c(/C=N/NC2=NCCN2)c2ccccc12 [bisantrene, 9,10-anthracenedicarboxaldehyde-bis [(4,5-dihydro-1H-imidazole-2-yl) hydrazine] dihydrochloride]
shape of DNA dissociation curves [1]: biphasic
maximally tolerated dose ([2]; daily×5, repeat every 4 week (Spiegel et al. 1982)): 80 mg/m^2
maximally tolerated dose ([2]; monthly (every 3-4 week) (Von Hoff et al. 1981b)): 260 mg/m^2
maximally tolerated dose ([2]; monthly (every 3-4 week), patients with poor bone marrow reserve): 240 mg/mg^2
maximally tolerated dose ([2]; weekly×3 (Alberts et al. 1982)): 200 mg/m^2
maximally tolerated dose ([2]; weekly×3, patients with poor bone marrow reserve (Alberts et al. 1982)): 150 mg/mg^2
maximally tolerated dose ([2]; weekly×3, repeat every 4-5 week (Yap et al. 1982)): 150 mg/m^2
effect of removal of particulates on content in solution [3]: does not diminish
toxicity for which the Phase II study was terminated ([4]; heavily pretreated patients with metastatic breast cancer): significant local toxicity
alopecia (hair loss) compared with doxorubicin ([4]; human, in vivo): less intense
anemia and cumulative myelosuppressive toxic effects ([4]; human, in vivo): not encountered
cardiotoxicity in the clinic compared with other agents in its class ([4]; human, in vivo): less cardiotoxicity
electrocardiographic changes while receiving the drug ([4]; human, in vivo): No patients experienced electrocardiographic changes
fever ([4]; human, in vivo): mild fever
major dose-limiting toxic effect ([4]; human, in vivo): leukopenia
nausea or vomiting ([4]; human, in vivo): very little nausea or vomiting
patients reporting malaise ([4]; human, in vivo): up to one-half of patients
patients with anaphylactoid reactions following infusion ([4]; human, in vivo): Up to 10%
phlebitis along peripheral veins used for drug infusion ([4]; human, in vivo): severe phlebitis
radioangiocardiographic monitoring of cardiac function ([4]; human, in vivo): no decrease in ejection fraction
recovery from myelosuppression ([4]; human, in vivo): ≤ 19 days
thrombocytopenia ([4]; human, in vivo): mild
nadir for myelosuppression ([4]; schedule of every 3 to 4 weeks): 9 days
effect on platelet aggregation [5]: inhibit platelet aggregation
cardiotoxicity [6]: not cardiotoxic
activity in refractory malignant melanoma ([7]; Phase II): inactive
activity in phase I clinical trials ([7]; hepatocellular cancer and hypernephroma (one patient each)): showed activity
activity in phase I clinical trials ([7]; lymphoma, myeloma, melanoma, renal cancer, tumors of the bladder and lung): showed activity
activity in Phase II clinical trials ([7]; patients with metastatic breast cancer): active
activity in human colon cancer ([7]; tested in vivo (Phase II, advanced colorectal cancer)): inactive
activity in phase I clinical trials ([7]; two other hypernephroma patients, five-day schedule): activity was also observed
brain levels [8]: extremely low
distribution to lymph nodes and bone marrow [8]: did distribute
tissues with the highest concentration (in descending order) [8]: kidney, liver, gallbladder, spleen, lung, and heart
activity in clonogenic assays ([9]; breast, small cell lung, large cell lung, squamous cell lung, ovarian, pancreatic, renal, adrenal, head and neck, sarcoma, gastric, lymphoma and melanoma tumor cells): Activity
cross resistance with Adriamycin and mitoxantrone [9]: lack of cross resistance
activity in clonogenic assays ([9]; colorectal cancer): not in colorectal cancer
cytotoxicity and DNA strand breaks [10]: reduced
assay after passage through 0.2-μm filter versus i.v. bag assay ([11]; sample collected in glass vials): approximately 5 % lower
assay after passage through 0.2-μm filter versus i.v. bag assay ([11]; sample collected in plastic vials): approximately matched
assay of fully diluted drug in the i.v. bag versus reconstituted drug in the finished vial ([11]; samples collected in glass vials): approximately 5 % lower
assay of fully diluted drug in the i.v. bag versus reconstituted drug in the finished vial ([11]; samples collected in plastic vials): no reduction
toxicities observed [12]: leukopenia, anorexia, diarrhea, injection site necrosis, enterocolitis, muscle degeneration, and pulmonary edema
metabolism by hepatic microsomal enzymes [13]: substrate
DNA strand breaks typical of inhibition of DNA topoisomerase II enzymes [14]: induce protein-associated DNA strand breaks
DNA supercoiling indicative of DNA intercalation [14]: induce altered DNA supercoiling
antitumor activity [15]: antitumor activity
precipitation of drug in the body [16]: precipitates in the body have been observed
sensitivity of human tumor cells ([17]; breast, ovarian, renal, small cell and non-small cell lung cancer, lymphoma, acute myelogenous leukemia, melanoma, gastric, adrenal, head and neck cancer): sensitive
activity in human colon cancer ([17]; tested in vitro): inactive
activity in cancer models ([18]; intravenously (i.v.), intraperitoneally (i.p.), or subcutaneously (s.c.)): effective
activity in cancer models ([18]; orally): inactive
bound to plasma proteins [19]: More than 95%
dose excreted in the urine ([20]; in vivo): Less than 7%
route by which the majority of the drug is eliminated ([20]; in vivo): hepatobiliary route
area under the plasma concentration×time curve ([20]; intravenous dose 260 mg/m^2): 4400 µg·h/mL
area under the plasma concentration×time curve ([20]; intravenous dose 340 mg/m^2): 5700 µg·h/mL
beta phase of elimination ([20]; plasma): approximately 1.5 hours
initial distributive phase of elimination ([20]; plasma): 6 min

O=C([O-])O.[Na+] [sodium bicarbonate]
effect of local injection on bisantrene extravasation necrosis [21]: blocked
